According to patent US12492337B2, “Fluorescent probe, preparation method therefor and use thereof” (FLUORESCENCE DIAGNOSIS (SHANGHAI) BIOTECH COMPANY, priority 2017, dated 2025):

Key:
[1] = system: HaloTag protein tag; experiment: Probe mixed with HaloTag protein tag, fluorescence spectrophotometer (Example 86); format: biochemical; settings: 5 μM probe, 10 μM protein tag, 37° C., 1 hour; for Fluorescence enhancement: fluorescence activation multiple after binding protein tag; for Emission/nm: fluorescence emission wavelength
Method: (§1) A probe was mixed with a corresponding HaloTag protein tag to obtain a mixed sample. The final concentration of the probe in the mixed sample was 5 μM and the final concentration of the protein tag was 10 μM. The mixed sample was incubated at 37° C. for 1 hour, and the sample was detected using a fluorescence spectrophotometer.

[2] = Quantum yield of free probe not reacted with protein tag; format: physicochemical
Method: as §1

[3] = Viscosity responsiveness: fluorescence intensity in glycerol versus methanol; format: physicochemical; settings: fluorescence intensity in glycerol to that in methanol
Method in brief: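 At 25 °C, with the same dye concentration and excitation wavelength, maximum emission intensity in glycerol was compared with intensity in methanol, giving a ratio. Dye concentrations ranged from 1×10^−7 M to 1×10^−5 M.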

[4] = system: SNAP protein; experiment: Labeling speed and fluorescence intensity, purified SNAP protein, microplate reader (Example 95); format: biochemical
Method: To verify that the probe-labeled HaloTag protein tag has a faster labeling speed and higher fluorescence intensity than the probe-labeled SNAP protein tag, a probe 48-labeled HaloTag protein tag and a reference probe 85-labeled SNAP protein tag were taken as examples (probe 48 and reference probe 85 have the same fluorescent dye portion). When labeling, the purified HaloTag protein and SNAP protein were first diluted to 7.5 μM with PBS.
Probe 48 and reference probe 85 were diluted to 15 μM with PBS, and 20 μL of probe 48 was added to 80 μL of HaloTag protein and mixed, 20 μL of reference probe 85 was added to 80 μL of SNAP protein and mixed, and a microplate reader was used to monitor the changes in fluorescence intensity of the two solutions excited at 620 nm and emitted at 650 nm, which lasted for two hours.

[5] = system: Hela cells stably expressing HaloTag protein tags; experiment: Confocal imaging of labeled Hela cells stably expressing HaloTag protein tags (Example 89); format: cell-based; settings: Homo sapiens, 5 μM probe, 2 hours, 37° C., confocal microscope, read-out: fluorescence signal enhancement in Hela cells expressing the protein tag
Method: (§2) Hela cells are used as an example to test the labeling effect of compounds in mammalian cells. Hela cells and Hela-WT cells (Hela primitive cell, without a protein tag expressed) stably expressing HaloTag protein tags were planted in 14 mm 96-well glass bottom cell culture plates and stabilized for 10 hours. Probe 57, probe 59, probe 60, probe 61, probe 69, probe 75, probe 76, probe 82 were added to the culture medium and diluted to 5 μM, respectively. The cells were incubated in a 37° C. carbon dioxide incubator for 2 hours, and the fluorescence changes of the labeled cells were detected by imaging with a Leica TPS-8 confocal microscope.

[6] = system: Hela-WT cells; experiment: Confocal imaging of Hela-WT cells without protein tag (Example 89); format: cell-based; settings: 5 μM probe, 2 hours, 37° C., confocal microscope
Method: as §2

[7] = system: HaloTag protein tags in different subcellular organelles of Hela cells; experiment: Labeling HaloTag protein tags in different subcellular organelles of Hela cells (Example 90); format: cell-based; settings: 0.2 μM probe, 2 hours, no washing; cytoskeleton, mitochondria, nucleus, Golgi, whole cells, lysosomes
Method: In order to verify that probe 57, probe 59, probe 60, probe 61, probe 62, and probe 63 can be used to label target proteins located in different organelles. Hela cells were used as examples to detect the effect of probes on labeling HaloTag protein tags in different subcellular organelles. Hela cells were implanted 5000 cells per well in 96-well glass-bottom cell culture plates. After 14 hours, lipo2000 kit was used to transfect the plasmids localized by HaloTag protein tags in different organelles. The original culture medium was removed 24 hours after transfection, and the cells were washed twice with a phenol red-free DMEM medium, and incubated for 2 hours in a phenol red-free medium containing 0.2 μM probes, and the effect of cell labelling was detected by imaging using a Leica TCS-8 confocal microscope.

[8] = system: HaloTag-IAA17-H2B protein; experiment: Fluorescence change on IAA-induced degradation of HaloTag-IAA17-H2B in Hela cells (Example 93); format: cell-based; settings: 1 μM probe, 1 hour labeling, then IAA-induced protein degradation
Method: In order to verify the correlation between the fluorescent activation of the probe and the presence of protein, the HaloTag protein in mammalian cells was taken as an example, and the AID degradation system in Hela cells was used as an example to detect the fluorescence changes of HaloTag protein binding probes after protein degradation. First, Hela cells were implanted 20,000/cm^2 in a 20 mm glass-bottomed cell culture dish. After 14 hours, pcdna3.1-TIR1 and pcdna3.1-HaloTag-IAA17-H2B plasmids were transfected with lipofectmain2000 transfection reagent from invirtogen. 24 hours after cell transfection, the original cell culture medium was replaced with a phenol red-free DMEM medium containing 1 μM probe 61 to label the cells, and the cell samples were incubated in a 37° C. carbon dioxide incubator for 1 hour. After the labeling was completed, the fluorescence signal of cell labels was detected by imaging using a Leica SP8 laser confocal microscope. Then, indole acetic acid (IAA) was added to induce the degradation of HaloTag-IAA17-H2B protein, and the changes in cell fluorescence during protein degradation were detected. […] When proteins are present, fluorescence is activated, and when proteins are degraded, fluorescence disappears, which can be used to track and monitor the degradation process of target proteins.

[9] = system: fusion protein CX43-HaloTag; experiment: Tracing assembly of CX43-HaloTag intercellular channels in Hela cells (Example 94); format: cell-based
Description: To verify that the probe can be used to monitor the assembly and degradation of biomacromolecules in mammalian cells in real time, Hela cells were used as an example to detect the process of tracing, by a probe, the assembly of intercellular protein CX43 to form intercellular channels in mammalian cells. The C-terminus of CX43 gene was fused with HaloTag gene, and a Hela cell line stably expressing the fusion protein CX43-HaloTag was constructed and obtained by lentiviral infection technology. Hela-CX43-HaloTag cell lines were implanted in a 20 mm glass-bottom cell culture dish 10 hours before the probe labeling. When labeling, the probe 61 μM was first diluted to 2 μM with phenol red-free DMEM medium and replaced the original cell culture medium. The cells were incubated in a 37° C. carbon dioxide incubator for 1 hour. Thereafter, the cells were washed twice with fresh phenol red-free DMEM medium, and the unbound probe 61 was removed at intervals of 2 min. Then, a DMEM phenol-free medium containing 1 μM probe 57 was added to label the cells, and a Leica SP8 confocal microscope was used to monitor the fluorescence intensity and position changes of labeled cells at the corresponding fluorescence channels of probe 61 and probe 57 for a long time, which are shown in FIGS. 17A and 17B, respectively. […]

Structure (SMILES) | The quantum yield after binding to Halo-tag [1] | Fluorescence enhancement [1] | Emission/nm [1] [nm] | The quantum yield of the free probe [2] | ratio [3] | labeling time of the SNAP protein tag labeled by the probe ([4]; 20 μL 15 μM probe + 80 μL 7.5 μM protein in PBS, excited at 620 nm, emitted at 650 nm) | fluorescence intensity lower than the former (probe 48-labeled HaloTag) by ([4]; same conditions as probe 48 with HaloTag protein) [time] | fold induction at 5 µM [5] | fluorescent signal in Hela-WT cells [6] | effect of cell labelling of subcellular organelles [7] | fluorescence signal after indoleacetic acid added for 90 min [8] | fluorescent signal in the probe 61 fluorescence channel ([9]; 2 μM probe, 1 hour, Hela-CX43-HaloTag cells) | fluorescent signal in the probe 57 channel when just added ([9]; 1 μM probe added after labeling with probe 61 and washing)
CN(CCOC(=O)NCc1ccc(COc2nc(N)nc3[nH]cnc23)cc1)c1cc2c(s1)-c1sc(/C=C(\C#N)C(=O)OC(C)(C)C)cc1C2(C)C [Reference Probe85, reference compound] | 0.32 | 321 | 645 | <0.001 | 510 | about 7 min | ≥ 1 | – | – | – | – | – | –
CN(C)c1cc2sc(/C=C(\C#N)C(=O)NCCOCCOCCCCCCCl)cc2s1 [Probe 61] | 0.59 | 668 | 552 | 0.0012 | 817 | – | – | ~200 | no corresponding fluorescent signal could be detected | clearly display a variety of subcellular organelle structures without washing | almost invisible | long column-shaped specific fluorescent signal between the two cells | –
CN(C)c1ccc(/C=C(\C#N)C(=O)NCCOCCOCCCCCCCl)cc1 [Probe 57] | 0.56 | 1026 | 480 | <0.001 | 762 | – | – | ~200 | no corresponding fluorescent signal could be detected | clearly display a variety of subcellular organelle structures without washing | – | – | fluorescent signal could not be detected
